Laboratory results: paper PMC12150326 (The Journal of Organic Chemistry, 2025)
Where two headings read alike, the source gives them in different places.

Experiments:
[1] = target: colchicine site of bovine brain tubulin; assay type: binding; conditions: tubulin binding constant, 25 °C
Description: Inhibition of this fluorescence increase was measured and converted to K d for the test compound as described.

bovine brain tubulin = experiment: Tubulin polymerization inhibition; assay type: biochemical; conditions: 10 μM tubulin
Description: Inhibition of tubulin polymerization was determined as described previously. In brief, 10 μM bovine brain tubulin (PurSolutions, LLC (puresoluble.com)) was incubated under conditions strongly promoting polymerization of tubulin (1 M NaGlutamate, 0.1 M Mes (Morpholinoethanesulfonic acid), 1 mM MgCl2, 0.5 mM GTP, pH 6.9), in the absence or presence of 3.3 or 33 μM test compound, incubated for 30 min at 37 °C, then centrifuged at 100,000g for 8 min, and the top 3/4 of the supernatant removed. Protein concentration was measured, and polymerization was determined as pelletable protein lost from the supernatant.

A549 = experiment: Cell-growth inhibition (CellTiter); assay type: cell-based, human; conditions: Homo sapiens, A549, 72 h, A549, 3 days; read-out: Cell Growth Inhibition GI50 ± SE
Description: (§1) Inhibition of cell growth was determined by using standard procedures. Cell lines were obtained from the NCI anticancer drug screen and maintained in DMEM medium supplemented with 10% fetal bovine serum. Growing cells were exposed to serial dilutions of each compound for 3 days. Cell growth was determined with CellTiter Assay Reagent (Promega), and growth parameters, including inhibition of growth, were measured by using the methods specified by the manufacturer.

M14 [2] = experiment: Cell-growth inhibition (CellTiter); assay type: cell-based, human; conditions: Homo sapiens, M14, 72 h, M14, 3 days; read-out: Cell Growth Inhibition GI50 ± SE
Description: as §1

PC3 = experiment: Cell-growth inhibition (CellTiter); assay type: cell-based, human; conditions: Homo sapiens, PC-3, 72 h, PC3, 3 days; read-out: Cell Growth Inhibition GI50 ± SE
Description: as §1

A498 = assay type: cell-based, human
Description: (§2) (aR)-6, (aS)-6, (aS)-iso -6, and (aR)-iso -6 were submitted to the 60 Cell Screen panel and evaluated at 5 doses (100 μM, 10 μM, 1 μM, 0.1 μM, and 0.01 μM). […] The complete report from this submission is available at the publisher’s Web site as a separate Supporting Information file. For COMPARE analysis, TGI levels of response for (aR)-DM-MTC (6) and (aS)-iso-DM-MTC were compared to those of several established tubulin inhibitors previously tested in the NCI-60 screen.

A549/ATCC = assay type: cell-based, human
Description: as §2

BT-549 = assay type: cell-based, human
Description: as §2

CCRF-CEM = assay type: cell-based, human
Description: as §2

EKVX = assay type: cell-based, human
Description: as §2

HCT-15 = assay type: cell-based, human
Description: as §2

HOP-62 = assay type: cell-based, human
Description: as §2

HS 578T = assay type: cell-based, human
Description: as §2

IGROV1 = assay type: cell-based, human
Description: as §2

K-562 = assay type: cell-based, human
Description: as §2

M14 [3] = assay type: cell-based, human
Description: as §2

MOLT-4 = assay type: cell-based, human
Description: as §2

NCI-H522 = assay type: cell-based, human
Description: as §2

SF-295 = assay type: cell-based, human
Description: as §2

SK-MEL-28 = assay type: cell-based, human
Description: as §2

SK-OV-3 = assay type: cell-based, human
Description: as §2

SR = assay type: cell-based, human
Description: as §2

TK-10 = assay type: cell-based, human
Description: as §2

UACC-62 = assay type: cell-based, human
Description: as §2

UO-31 = assay type: cell-based, human
Description: as §2

What does the source list for `COc1cc(C)c(-c2ccc(=O)c(OC)cc2C)c(OC)c1OC` (single isomer, unassigned) [(aS)-iso-6]?
Kd [1]: nb; Polymerization Inhibition (%) 3.3 μM (bovine brain tubulin; 3.3 μM compound): 0%; Polymerization Inhibition (%) 33 μM (bovine brain tubulin; 33 μM compound): 0%; GI50 (A549): > 20 µM; GI50 (M14 [2]): > 20 µM; GI50 (PC3): > 20 µM; Log10GI50 (A498): -4.85 Molar; Log10LC50 (A498): > -4.00 Molar; Log10TGI (A498): -4.28 Molar; GI50 (A498; Homo sapiens): 14.1 µM; Log10GI50 (A498; […]): -4.85 Molar; Log10GI50 (A549/ATCC): -4.45 Molar; Log10LC50 (A549/ATCC): > -4.00 Molar; Log10TGI (A549/ATCC): > -4.00 Molar; GI50 (A549/ATCC; Homo sapiens): 35.5 µM; Log10GI50 (A549/ATCC; […]): -4.45 Molar; Log10GI50 (BT-549): -4.82 Molar; Log10LC50 (BT-549): > -4.00 Molar; Log10TGI (BT-549): > -4.00 Molar; GI50 (BT-549; Homo sapiens): 15.1 µM; Log10GI50 (BT-549; […]): -4.82 Molar; Log10GI50 (CCRF-CEM): -4.53 Molar; Log10LC50 (CCRF-CEM): > -4.00 Molar; Log10TGI (CCRF-CEM): > -4.00 Molar; GI50 (CCRF-CEM; Homo sapiens): 29.5 µM; Log10GI50 (CCRF-CEM; […]): -4.53 Molar; Log10GI50 (EKVX): -4.18 Molar; Log10LC50 (EKVX): > -4.00 Molar; Log10TGI (EKVX): > -4.00 Molar; GI50 (EKVX; Homo sapiens): 66.1 µM; Log10GI50 (EKVX; […]): -4.18 Molar; Log10GI50 (HCT-15): -4.89 Molar; Log10LC50 (HCT-15): > -4.00 Molar; Log10TGI (HCT-15): > -4.00 Molar; GI50 (HCT-15; Homo sapiens): 12.9 µM; Log10GI50 (HCT-15; […]): -4.89 Molar; Log10GI50 (HOP-62): -4.46 Molar; Log10LC50 (HOP-62): > -4.00 Molar; Log10TGI (HOP-62): > -4.00 Molar; GI50 (HOP-62; Homo sapiens): 34.7 µM; Log10GI50 (HOP-62; […]): -4.46 Molar; Log10GI50 (HS 578T): -4.80 Molar; Log10LC50 (HS 578T): > -4.00 Molar; Log10TGI (HS 578T): -4.19 Molar; GI50 (HS 578T; Homo sapiens): 15.8 µM; Log10GI50 (HS 578T; […]): -4.8 Molar; Log10GI50 (IGROV1): -4.32 Molar; Log10LC50 (IGROV1): > -4.00 Molar; Log10TGI (IGROV1): > -4.00 Molar; GI50 (IGROV1; Homo sapiens, IGROV-1): 47.9 µM; Log10GI50 (IGROV1; […]): -4.32 Molar; Log10GI50 (K-562): -5.30 Molar; Log10LC50 (K-562): > -4.00 Molar; Log10TGI (K-562): > -4.00 Molar; GI50 (K-562; Homo sapiens, K562): 5.01 µM; Log10GI50 (K-562; […]): -5.3 Molar; Log10GI50 (M14 [3]): -4.76 Molar; Log10LC50 (M14 [3]): > -4.00 Molar; Log10TGI (M14 [3]): > -4.00 Molar; GI50 (M14 [3]; Homo sapiens): 17.4 µM; Log10GI50 (M14 [3]; […]): -4.76 Molar; Log10GI50 (MOLT-4): -4.44 Molar; Log10LC50 (MOLT-4): > -4.00 Molar; Log10TGI (MOLT-4): > -4.00 Molar; GI50 (MOLT-4; Homo sapiens): 36.3 µM; Log10GI50 (MOLT-4; […]): -4.44 Molar; Log10GI50 (NCI-H522): -4.69 Molar; Log10LC50 (NCI-H522): > -4.00 Molar; Log10TGI (NCI-H522): -4.15 Molar; GI50 (NCI-H522; Homo sapiens): 20.4 µM; Log10GI50 (NCI-H522; […]): -4.69 Molar; Log10GI50 (SF-295): -4.64 Molar; Log10LC50 (SF-295): > -4.00 Molar; Log10TGI (SF-295): > -4.00 Molar; GI50 (SF-295; Homo sapiens): 25.7 µM; Log10GI50 (SF-295; […]): -4.59 Molar; Log10GI50 (SK-MEL-28): > -4.00 Molar; Log10LC50 (SK-MEL-28): > -4.00 Molar; Log10TGI (SK-MEL-28): > -4.00 Molar; Log10GI50 (SK-OV-3): -4.57 Molar; Log10LC50 (SK-OV-3): > -4.00 Molar; Log10TGI (SK-OV-3): > -4.00 Molar; GI50 (SK-OV-3; Homo sapiens): 26.9 µM; Log10GI50 (SK-OV-3; […]): -4.57 Molar; Log10GI50 (SR): -5.24 Molar; Log10LC50 (SR): > -4.00 Molar; Log10TGI (SR): > -4.00 Molar; GI50 (SR; Homo sapiens): 5.75 µM; Log10GI50 (SR; […]): -5.24 Molar; Log10GI50 (TK-10): > -4.00 Molar; Log10LC50 (TK-10): > -4.00 Molar; Log10TGI (TK-10): > -4.00 Molar; GI50 (TK-10; Homo sapiens): > 100 µM; Log10GI50 (TK-10; […]): > -4 Molar; Log10GI50 (UACC-62): -4.78 Molar; Log10LC50 (UACC-62): > -4.00 Molar; Log10TGI (UACC-62): > -4.00 Molar; GI50 (UACC-62; Homo sapiens): 16.6 µM; Log10GI50 (UACC-62; […]): -4.78 Molar; Log10GI50 (UO-31): -4.34 Molar; Log10LC50 (UO-31): > -4.00 Molar; Log10TGI (UO-31): > -4.00 Molar; GI50 (UO-31; Homo sapiens): 45.7 µM; Log10GI50 (UO-31; […]): -4.34 Molar
